From patent US20180020668A1, “Agricultural Mixtures” (priority 2015, published 2018) come the findings set out here.

SMILES strings stand for the structures.

Holding throughout (assay type): in vivo
The subject of one assay is Rhizoctonia. Put plainly: Corn emergence, vigor and pest infestation study (Example 1, two plantings). Particulars: for Plant Emergence: corn, field inoculated with Rhizoctonia, seed treatment, rates per treatment in mg ai/seed; for Plant Emergence / Pest Severity / Pest Incidence / Plant Vigor: about 30 DAP; for Pest Severity: percentage of infected plants; for Pest Incidence / Plant Vigor: rated on a scale of 1 to 9; for Plant Yield: about six months after planting.

The subject of assay [1] is corn. Nature of the assay: Corn plant stand establishment and yield study (Example 2). As to conditions: seed treatment, rates in mg active[s] per seed. As for the experimental part: A study was conducted in order to determine the effects of seed treatments on the number of corn plants per acre and yield. One acre was planted with seeds treated as indicated below in a randomized block design. Treatments were applied to the seeds in a manner known by those of skill in the art. The number of plants was determined for each treatment on four different days before harvest. After harvest, the yield of the plants was determined. The results of this study can be seen below in Tables 2 and 3.

Assay [2] relates to corn. Put plainly: Another corn plant stand establishment and yield study (Example 3). As to conditions: seed treatment, rates in mg active[s] per seed. As for the experimental part:
Another study was conducted in order to determine the effects of seed treatments on the number of corn plants per acre and yield. The study design was the same as the study described in Example 1. The results of this study can be seen below in Tables 3 and 4.

As to `CN1COCN(Cc2cnc(Cl)s2)C1=N[N+](=O)[O-]` [Thiamethoxam, 3-[(2-Chloro-1,3-thiazol-5-yl)methyl]-5-methyl-N-nitro-1,3,5-oxadiazinan-4-imine], in the assay with Rhizoctonia (first planting), the “Plant Emergence” value worked out at 19800 plants per acre, the “Pest Severity” value was 41.3%, the “Pest Incidence” value was 3.8 and the “Plant Vigor” value is on record as 4.0. For the same compound, the “Plant Yield” value in the assay on Rhizoctonia (first planting) worked out at 60.8 Bu/A. For the same compound, in the assay with Rhizoctonia (second planting), the “Plant Emergence” value is 25450 plants per acre, the “Pest Severity” value is listed as 16.3%, the “Pest Incidence” value came to 6.5 and the “Plant Vigor” value is 5.5. Further, in the assay on Rhizoctonia (second planting), the “Plant Yield” value was found to be 106.7 Bu/A. Moreover, the “Corn Plant Stand - Number of Plants Per Acre” value in the assay with corn [1] (34 DAP) is reported as 22052 Plants Per Acre. In addition, the “Corn Plant Stand - Number of Plants Per Acre” value with corn [1] (116 DAP) is 20010 Plants Per Acre. Besides, in the assay with corn [2], the “Corn Plant Yield” value stood at 172 Bushels/Acre.
